Legend:
Assay type in all cases: in vivo
[1] = tested on: Surinam grass (Brachiaria decumbens); assay: Test B postemergence; settings: 13 to 15 days
How it was run: (§1)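 Post-treatment, species sat 13–15 days under greenhouse conditions before visual scoring against controls, 0 (no effect) through 100 (complete control). Application preemergence to sown seeds or postemergence at 1- to 4-leaf stage, using a non-phytotoxic solvent/surfactant formulation.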

[2] = tested on: barnyardgrass (Echinochloa crus-galli); assay: Test B postemergence; settings: 13 to 15 days
How it was run: as §1

[3] = tested on: blackgrass (Alopecurus myosuroides); assay: Test B postemergence; settings: 13 to 15 days
How it was run: as §1

[4] = tested on: cocklebur (Xanthium strumarium); assay: Test B postemergence; settings: 13 to 15 days
How it was run: as §1

corn (Zea mays) [5] = assay: Test B postemergence; settings: 13 to 15 days
How it was run: as §1

[6] = tested on: crabgrass (Digitaria sanguinalis); assay: Test B postemergence; settings: 13 to 15 days
How it was run: as §1

[7] = tested on: giant foxtail (Setaria faberii); assay: Test B postemergence; settings: 13 to 15 days
How it was run: as §1

[8] = tested on: lambsquarters (Chenopodium album); assay: Test B postemergence; settings: 13 to 15 days
How it was run: as §1

[9] = tested on: morning glory (Ipomoea hederacea); assay: Test B postemergence; settings: 13 to 15 days
How it was run: as §1

[10] = tested on: pigweed (Amaranthus retroflexus); assay: Test B postemergence; settings: 13 to 15 days
How it was run: as §1

[11] = tested on: velvetleaf (Abutilon theophrasti); assay: Test B postemergence; settings: 13 to 15 days
How it was run: as §1

[12] = tested on: wheat (Triticum aestivum); assay: Test B postemergence; settings: 13 to 15 days
How it was run: as §1

wild oat (Avena fatua) = assay: Test B postemergence; settings: 13 to 15 days
How it was run: as §1

[13] = tested on: Surinam grass (Brachiaria decumbens); assay: Test B preemergence
How it was run: as §1

[14] = tested on: barnyardgrass (Echinochloa crus-galli); assay: Test B preemergence
How it was run: as §1

[15] = tested on: cocklebur (Xanthium strumarium); assay: Test B preemergence
How it was run: as §1

corn (Zea mays) [16] = assay: Test B preemergence
How it was run: as §1

[17] = tested on: crabgrass (Digitaria sanguinalis); assay: Test B preemergence
How it was run: as §1

[18] = tested on: giant foxtail (Setaria faberii); assay: Test B preemergence
How it was run: as §1

[19] = tested on: lambsquarters (Chenopodium album); assay: Test B preemergence
How it was run: as §1

[20] = tested on: morning glory (Ipomoea hederacea); assay: Test B preemergence
How it was run: as §1

[21] = tested on: pigweed (Amaranthus retroflexus); assay: Test B preemergence
How it was run: as §1

rice (Oryza saliva) [22] = assay: Test B preemergence
How it was run: as §1

[23] = tested on: velvetleaf (Abutilon theophrasti); assay: Test B preemergence
How it was run: as §1

rice (Oryza saliva) [24] = assay: Test C flooded paddy test; settings: for Rice plant response rating: Flooded Paddy, scale 0 to 100, 0 no effect, 100 complete control; for Plant response rating, Rice / Plant response rating (scale 0 to 100), Rice: flooded paddy test; for Plant response rating, Rice: scale 0 to 100 (0 no effect, 100 complete control)
How it was run: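 Visual injury score, 0 (no effect) to 100 (complete control), relative to controls. Paddy plants treated at 2-leaf stage; greenhouse hold 12–14 d before rating.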

Nightshade = assay: Test C preemergence; settings: visual evaluation after 12 to 14 days
Sunflower = assay: Test C preemergence; settings: scale 0 to 100, 0 no effect, 100 complete control
[25] = Rate 125 g/ha, scale 0 (no effect) to 100 (complete control)
[26] = Rate 500 g/ha, scale 0 to 100, 0 is no effect, 100 is complete control
[27] = Preemergence, Rate 500 g/ha, scale 0 to 100, 0 no effect, 100 complete control
[28] = preemergence, Rate 125 g/ha, scale 0 to 100, 0 no effect, 100 complete control
[29] = preemergence, Rate 125 g/ha, scale of 0 to 100 where 0 is no effect and 100 is complete control, 13 to 15 days

CC(C)(C)c1ccn(C2SCN(c3cccc(OC(F)(F)F)c3)C2=O)n1 (centres unmarked) [Compound 30]
Plant response rating, Surinam grass [1, 25]: 0 | Plant response rating, Surinam grass [1, 26]: 20 | Plant response rating, Barnyardgrass [2, 25]: 100 | Plant response rating, Barnyardgrass [2, 26]: 100 | Plant response rating, Blackgrass [3, 25]: 0 | Plant response rating, Blackgrass [3, 26]: 20 | Plant response rating, Cocklebur [4, 25]: 70 | Plant response rating, Cocklebur [4, 26]: 70 | Plant response rating, Corn (corn (Zea mays) [5]; [25]): 0 | Plant response rating, Corn (corn (Zea mays) [5]; [26]): 0 | Plant response rating, Crabgrass [6, 25]: 50 | Plant response rating, Crabgrass [6, 26]: 100 | Plant response rating, Foxtail, Giant [7, 25]: 10 | Plant response rating, Foxtail, Giant [7, 26]: 80 | Plant response rating, Lambsquarters [8, 25]: 90 | Plant response rating, Lambsquarters [8, 26]: 90 | Plant response rating, Morningglory [9, 25]: 40 | Plant response rating, Morningglory [9, 26]: 90 | Plant response rating, Pigweed [10, 25]: 100 | Plant response rating, Pigweed [10, 26]: 100 | Plant response rating, Velvetleaf [11, 25]: 0 | Plant response rating, Velvetleaf [11, 26]: 0 | Plant response rating, Wheat [12, 25]: 0 | Plant response rating, Wheat [12, 26]: 0 | Plant response rating, Wild Oat (wild oat (Avena fatua); [25]): 0 | Plant response rating, Wild Oat (wild oat (Avena fatua); [26]): 0 | Plant response rating, Surinam grass [13, 27]: 60 | Plant response rating, Surinam grass [13, 28]: 40 | Plant response rating, Barnyardgrass [14, 27]: 100 | Plant response rating, Barnyardgrass [14, 28]: 40 | Plant response rating, Cocklebur [15, 27]: 90 | Plant response rating, Cocklebur [15, 28]: 0 | Plant response rating, Corn (corn (Zea mays) [16]; [27]): 0 | Plant response rating, Corn (corn (Zea mays) [16]; [28]): 0 | Plant response rating, Crabgrass [17, 27]: 100 | Plant response rating, Crabgrass [17, 28]: 20 | Plant response rating, Foxtail, Giant [18, 27]: 100 | Plant response rating, Foxtail, Giant [18, 28]: 70 | Plant response rating, Lambsquarters [19, 27]: 100 | Plant response rating, Lambsquarters [19, 28]: 100 | Plant response rating, Morningglory [20, 27]: 90 | Plant response rating, Pigweed [21, 27]: 100 | Plant response rating, Rice (rice (Oryza saliva) [22]; [27]): 0 | Plant response rating, Velvetleaf [23, 27]: 40 | Rice plant response rating (rice (Oryza saliva) [24]; Rate 250 g/ha): 80 | Rice plant response rating (rice (Oryza saliva) [24]; Rate 500 g/ha): 80 | Plant response rating, Rice (rice (Oryza saliva) [24]; Rate 62 g/ha): 0 | Plant response rating, Rice (rice (Oryza saliva) [24]; Rate 125 g/ha): 20 | Plant response rating (scale 0 to 100), Rice (rice (Oryza saliva) [24]; Rate 16 g/ha, visually evaluated after 12 to 14 days, 0 = no effect, 100 = complete control): 0 | Plant response rating (scale 0 to 100), Rice (rice (Oryza saliva) [24]; under head Rate 16 g/ha, (own rate not given), after 12 to 14 days): 0 | Plant response rating (0 to 100), Nightshade (Nightshade; Rate 250 g/ha): 100 | Plant response rating, Sunflower (Sunflower; Rate 125 g/ha): 80

CC1(c2ccn(C3SCN(c4cccc(OC(F)(F)F)c4)C3=O)n2)CC1 (centres unmarked) [Compound 63]
Plant response rating, Surinam grass [1, 25]: 0 | Plant response rating, Surinam grass [1, 26]: 0 | Plant response rating, Barnyardgrass [2, 25]: 0 | Plant response rating, Barnyardgrass [2, 26]: 60 | Plant response rating, Blackgrass [3, 25]: 0 | Plant response rating, Blackgrass [3, 26]: 0 | Plant response rating, Cocklebur [4, 25]: 0 | Plant response rating, Cocklebur [4, 26]: 50 | Plant response rating, Corn (corn (Zea mays) [5]; [25]): 0 | Plant response rating, Corn (corn (Zea mays) [5]; [26]): 0 | Plant response rating, Crabgrass [6, 25]: 0 | Plant response rating, Crabgrass [6, 26]: 60 | Plant response rating, Foxtail, Giant [7, 25]: 0 | Plant response rating, Foxtail, Giant [7, 26]: 50 | Plant response rating, Lambsquarters [8, 25]: 60 | Plant response rating, Lambsquarters [8, 26]: 80 | Plant response rating, Morningglory [9, 25]: 0 | Plant response rating, Morningglory [9, 26]: 40 | Plant response rating, Pigweed [10, 25]: 50 | Plant response rating, Pigweed [10, 26]: 70 | Plant response rating, Velvetleaf [11, 25]: 0 | Plant response rating, Velvetleaf [11, 26]: 50 | Plant response rating, Wheat [12, 25]: 0 | Plant response rating, Wheat [12, 26]: 0 | Plant response rating, Wild Oat (wild oat (Avena fatua); [25]): 0 | Plant response rating, Wild Oat (wild oat (Avena fatua); [26]): 0 | Plant response rating, Surinam grass [13, 27]: 30 | Plant response rating, Surinam grass [13, 29]: 0 | Plant response rating, Barnyardgrass [14, 27]: 90 | Plant response rating, Barnyardgrass [14, 29]: 50 | Plant response rating, Cocklebur [15, 27]: 0 | Plant response rating, Cocklebur [15, 29]: 0 | Plant response rating, Corn (corn (Zea mays) [16]; [27]): 0 | Plant response rating, Corn (corn (Zea mays) [16]; [29]): 0 | Plant response rating, Crabgrass [17, 27]: 100 | Plant response rating, Crabgrass [17, 29]: 0 | Plant response rating, Foxtail, Giant [18, 27]: 90 | Plant response rating, Foxtail, Giant [18, 29]: 50 | Plant response rating, Lambsquarters [19, 27]: 100 | Plant response rating, Lambsquarters [19, 29]: 100 | Plant response rating, Morningglory [20, 27]: 0 | Plant response rating, Morningglory [20, 29]: 0 | Plant response rating, Pigweed [21, 27]: 100 | Plant response rating, Pigweed [21, 29]: 100 | Plant response rating, Rice (rice (Oryza saliva) [22]; [27]): 0 | Plant response rating, Rice (rice (Oryza saliva) [22]; [29]): 0 | Plant response rating, Velvetleaf [23, 27]: 0 | Plant response rating, Velvetleaf [23, 29]: 0 | Rice plant response rating (rice (Oryza saliva) [24]; Rate 250 g/ha): 40 | Rice plant response rating (rice (Oryza saliva) [24]; Rate 500 g/ha): 40 | Plant response rating, Rice (rice (Oryza saliva) [24]; Rate 62 g/ha): 0 | Plant response rating, Rice (rice (Oryza saliva) [24]; Rate 125 g/ha): 20 | Plant response rating (0 to 100), Nightshade (Nightshade; Rate 500 g/ha): 100 | Plant response rating, Sunflower (Sunflower; Rate 125 g/ha): 0 | Plant response rating, Sunflower (Sunflower; Rate 250 g/ha): 40

CC(C)(C)c1ccn(C2CCN(c3cccc(I)c3)C2=O)n1 (centres unmarked) [Compound 88]
Plant response rating, Surinam grass [1, 25]: 0 | Plant response rating, Surinam grass [1, 26]: 0 | Plant response rating, Barnyardgrass [2, 25]: 0 | Plant response rating, Barnyardgrass [2, 26]: 90 | Plant response rating, Blackgrass [3, 25]: 0 | Plant response rating, Blackgrass [3, 26]: 0 | Plant response rating, Cocklebur [4, 25]: 20 | Plant response rating, Cocklebur [4, 26]: 30 | Plant response rating, Corn (corn (Zea mays) [5]; [25]): 0 | Plant response rating, Corn (corn (Zea mays) [5]; [26]): 10 | Plant response rating, Crabgrass [6, 25]: 0 | Plant response rating, Crabgrass [6, 26]: 0 | Plant response rating, Foxtail, Giant [7, 25]: 20 | Plant response rating, Foxtail, Giant [7, 26]: 60 | Plant response rating, Lambsquarters [8, 25]: 100 | Plant response rating, Lambsquarters [8, 26]: 100 | Plant response rating, Morningglory [9, 25]: 20 | Plant response rating, Morningglory [9, 26]: 70 | Plant response rating, Pigweed [10, 25]: 90 | Plant response rating, Pigweed [10, 26]: 100 | Plant response rating, Velvetleaf [11, 25]: 0 | Plant response rating, Velvetleaf [11, 26]: 40 | Plant response rating, Wheat [12, 25]: 0 | Plant response rating, Wheat [12, 26]: 30 | Plant response rating, Wild Oat (wild oat (Avena fatua); [25]): 0 | Plant response rating, Wild Oat (wild oat (Avena fatua); [26]): 0 | Plant response rating, Surinam grass [13, 27]: 100 | Plant response rating, Surinam grass [13, 29]: 70 | Plant response rating, Barnyardgrass [14, 27]: 100 | Plant response rating, Barnyardgrass [14, 29]: 100 | Plant response rating, Cocklebur [15, 27]: 0 | Plant response rating, Cocklebur [15, 29]: 0 | Plant response rating, Corn (corn (Zea mays) [16]; [27]): 20 | Plant response rating, Corn (corn (Zea mays) [16]; [29]): 20 | Plant response rating, Crabgrass [17, 27]: 100 | Plant response rating, Crabgrass [17, 29]: 100 | Plant response rating, Foxtail, Giant [18, 27]: 100 | Plant response rating, Foxtail, Giant [18, 29]: 100 | Plant response rating, Lambsquarters [19, 27]: 100 | Plant response rating, Lambsquarters [19, 29]: 100 | Plant response rating, Morningglory [20, 27]: 0 | Plant response rating, Morningglory [20, 29]: 0 | Plant response rating, Pigweed [21, 27]: 100 | Plant response rating, Pigweed [21, 29]: 100 | Plant response rating, Rice (rice (Oryza saliva) [22]; [27]): 100 | Plant response rating, Rice (rice (Oryza saliva) [22]; [29]): 0 | Plant response rating, Velvetleaf [23, 27]: 0 | Plant response rating, Velvetleaf [23, 29]: 0 | Rice plant response rating (rice (Oryza saliva) [24]; Rate 250 g/ha): 30 | Rice plant response rating (rice (Oryza saliva) [24]; Rate 500 g/ha): 70 | Plant response rating, Rice (rice (Oryza saliva) [24]; Rate 62 g/ha): 0 | Plant response rating, Rice (rice (Oryza saliva) [24]; Rate 125 g/ha): 20 | Plant response rating (0 to 100), Nightshade (Nightshade; Rate 500 g/ha): 80 | Plant response rating, Sunflower (Sunflower; Rate 250 g/ha): 20
